In patent US20080009418A1, “Selective Inhibitors” (Alchemia LTD., priority 2004, published 2008):

Assays:
[1] = target: T1, Human δ-opioid (DOP) (Homo sapiens, UniProt P41143); assay: Radioligand binding, human δ-opioid (DOP) membranes, FlashPlate, [3H]-Bremazocine; conditions: compound at 10 μM, [3H]-Bremazocine; for A1: inhibition of radioligand binding: FlashPlate
T1 construct: purchased Perkin Elmer Biosignal
Procedure, shortened: (§1)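 Cloned human receptor membranes were coated onto FlashPlate wells and incubated with radioligand and compound (added from a 0.5 mM DMSO daughter plate) for 1 hour at room temperature in the dark. Scintillation counting gave percent inhibition, with DMSO defining total and reference ligand defining non-specific binding.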

[2] = target: T2, Human κ-Opioid (KOP) (Homo sapiens, UniProt P41145); assay: Radioligand binding, human κ-opioid (KOP) membranes, filtration, [3H]-Diprenorphine; conditions: compound at 10 μM, [3H]-Diprenorphine; for A2: inhibition of radioligand binding: filtration
T2 construct: purchased Perkin Elmer Biosignal
Procedure, shortened: (§2)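 Filtration binding on cloned human receptor membranes (1 Unit/well), [125I]-Substance P for NK1 and [3H]-Diprenorphine for KOP, 1 h at room temperature. Filters PEI-presoaked, washed with cold 50 mM Tris-HCl pH 7.4, counted by scintillation; percent inhibition calculated, reference ligand defining non-specific binding.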

[3] = target: T3, Human Melanocortin (MC3) (Homo sapiens, UniProt P41968); assay: Radioligand binding, human melanocortin MC3 membranes, FlashPlate, [125I]-NDP-αMSH; conditions: compound at 10 μM, [125I]-NDP-αMSH; for A3: inhibition of radioligand binding: FlashPlate
T3 construct: purchased Perkin Elmer Biosignal
Procedure, shortened: as §1

[4] = target: T4, Human Melanocortin (MC4) (Homo sapiens, UniProt P32245); assay: Radioligand binding, human melanocortin MC4 membranes, FlashPlate, [125I]-NDP-αMSH; conditions: compound at 10 μM, [125I]-NDP-αMSH; for A4: inhibition of radioligand binding: FlashPlate
T4 construct: purchased Perkin Elmer Biosignal
Procedure, shortened: as §1

[5] = target: T5, Human melanocortin (MC5) (Homo sapiens, UniProt P33032); assay: Radioligand binding, human melanocortin MC5 membranes, FlashPlate, [125I]-NDP-αMSH; conditions: compound at 10 μM, [125I]-NDP-αMSH; for A5: inhibition of radioligand binding: FlashPlate
T5 construct: purchased Perkin Elmer Biosignal
Procedure, shortened: as §1

[6] = target: T6, Human melanin-concentrating hormone (MCH1) (Homo sapiens, UniProt Q99705); assay: Radioligand binding, human melanin-concentrating hormone MCH1 membranes, FlashPlate, [125I]-S36057; conditions: compound at 10 μM; for A6: inhibition of radioligand binding: [125I]-S36057, FlashPlate
T6 construct: purchased Perkin Elmer Biosignal
Procedure, shortened: as §1

[7] = target: T7, Human μ-opioid (MOP) (Homo sapiens, UniProt P35372); assay: Radioligand binding, human μ-opioid (MOP) membranes, FlashPlate, [3H]-Naloxone; conditions: compound at 10 μM, [3H]-Naloxone; for A7: inhibition of radioligand binding: FlashPlate
T7 construct: purchased Perkin Elmer Biosignal
Procedure, shortened: as §1

[8] = target: T8, Human neurokinin (NK1) (Homo sapiens, UniProt P25103); assay: Radioligand binding, human neurokinin NK1 membranes, filtration, [125I]-Substance P; conditions: compound at 10 μM, [125I]-Substance P; for A8: inhibition of radioligand binding: filtration
T8 construct: purchased Perkin Elmer Biosignal
Procedure, shortened: as §2

[9] = target: T9, Human neuropeptide Y (NPY-Y1) (Homo sapiens, UniProt P25929); assay: Radioligand binding, human neuropeptide Y NPY-Y1 membranes, FlashPlate, [125I]-PYY; conditions: compound at 10 μM, [125I]-PYY; for A9: inhibition of radioligand binding: FlashPlate
T9 construct: purchased Perkin Elmer Biosignal
T9 sequence (P25929 1-384): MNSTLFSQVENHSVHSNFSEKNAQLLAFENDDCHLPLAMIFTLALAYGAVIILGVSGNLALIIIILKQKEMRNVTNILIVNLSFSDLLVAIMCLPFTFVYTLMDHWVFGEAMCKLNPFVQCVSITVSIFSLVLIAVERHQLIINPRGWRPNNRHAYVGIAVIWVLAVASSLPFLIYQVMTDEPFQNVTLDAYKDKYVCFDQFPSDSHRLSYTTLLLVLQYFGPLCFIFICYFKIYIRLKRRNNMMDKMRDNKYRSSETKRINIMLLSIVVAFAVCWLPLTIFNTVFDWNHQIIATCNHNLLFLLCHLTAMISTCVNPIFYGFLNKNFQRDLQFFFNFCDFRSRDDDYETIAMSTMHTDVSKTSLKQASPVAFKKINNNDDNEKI
Procedure, shortened: as §1

[10] = target: T10, Human opioid (ORL1) (Homo sapiens, UniProt P41146); assay: Radioligand binding, human opioid ORL1 membranes, FlashPlate, [125I]-Nociceptin; conditions: compound at 10 μM, [125I]-Nociceptin; for A10: inhibition of radioligand binding: FlashPlate
T10 construct: purchased Perkin Elmer Biosignal
Procedure, shortened: as §1

[11] = target: T11, Mouse urotensin (mUR2) (Mus musculus, UniProt Q8VIH9); assay: Radioligand binding, mouse urotensin mUR2 membranes, FlashPlate, [125I]-Urotensin II; conditions: compound at 10 μM, [125I]-Urotensin II; for A11: inhibition of radioligand binding: FlashPlate
T11 construct: purchased Perkin Elmer Biosignal
T11 sequence (Q8VIH9 1-385): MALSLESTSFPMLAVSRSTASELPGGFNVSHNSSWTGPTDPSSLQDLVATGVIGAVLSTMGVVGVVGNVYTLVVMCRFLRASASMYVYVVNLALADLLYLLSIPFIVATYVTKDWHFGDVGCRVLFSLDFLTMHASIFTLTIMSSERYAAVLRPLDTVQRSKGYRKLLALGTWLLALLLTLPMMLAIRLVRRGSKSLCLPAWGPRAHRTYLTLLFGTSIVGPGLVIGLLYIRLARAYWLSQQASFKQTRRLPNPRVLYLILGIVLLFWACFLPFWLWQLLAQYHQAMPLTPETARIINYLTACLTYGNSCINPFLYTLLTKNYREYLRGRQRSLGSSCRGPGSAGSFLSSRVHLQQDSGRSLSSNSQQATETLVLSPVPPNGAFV
Procedure, shortened: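 Cloned mouse urotensin (mUR2) receptor membranes from Perkin Elmer Biosignal were immobilized in FlashPlate microplates using a proprietary coating. Each well got 19.5 μl buffer, then 0.5 μl of DMSO, reference ligand, or compound. Adding 5 μl of [125I]-Urotensin II, diluted to 5× final concentration in binding buffer, started binding. Plates were sealed with TopSeal-A and incubated 1 hour at room temperature in the dark. Wells were counted for 30 seconds each on a TopCount after a 60-second delay, and percentage inhibition was calculated.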

T10 sequence (P41146 whole entry): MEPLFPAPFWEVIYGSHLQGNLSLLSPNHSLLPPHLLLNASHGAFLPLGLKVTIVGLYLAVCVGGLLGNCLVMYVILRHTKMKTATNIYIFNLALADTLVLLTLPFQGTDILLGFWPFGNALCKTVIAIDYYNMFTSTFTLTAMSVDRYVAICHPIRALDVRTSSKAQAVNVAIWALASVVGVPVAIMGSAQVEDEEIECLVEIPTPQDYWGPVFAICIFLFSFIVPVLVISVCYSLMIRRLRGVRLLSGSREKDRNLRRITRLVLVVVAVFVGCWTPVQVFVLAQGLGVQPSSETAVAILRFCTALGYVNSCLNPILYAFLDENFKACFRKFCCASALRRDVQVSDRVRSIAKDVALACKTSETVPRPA
T7 sequence (P35372 whole entry): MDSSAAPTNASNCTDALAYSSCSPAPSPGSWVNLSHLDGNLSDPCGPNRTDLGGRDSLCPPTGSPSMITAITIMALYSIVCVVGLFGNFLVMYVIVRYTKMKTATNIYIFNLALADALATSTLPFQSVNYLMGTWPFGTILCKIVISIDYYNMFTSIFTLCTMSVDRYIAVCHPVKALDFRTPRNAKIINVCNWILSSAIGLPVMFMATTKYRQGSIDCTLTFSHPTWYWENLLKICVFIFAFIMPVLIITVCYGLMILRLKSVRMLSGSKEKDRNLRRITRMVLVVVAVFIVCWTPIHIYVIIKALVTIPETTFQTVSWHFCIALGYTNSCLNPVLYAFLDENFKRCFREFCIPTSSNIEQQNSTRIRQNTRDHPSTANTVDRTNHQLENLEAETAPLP
T6 sequence (Q99705 whole entry): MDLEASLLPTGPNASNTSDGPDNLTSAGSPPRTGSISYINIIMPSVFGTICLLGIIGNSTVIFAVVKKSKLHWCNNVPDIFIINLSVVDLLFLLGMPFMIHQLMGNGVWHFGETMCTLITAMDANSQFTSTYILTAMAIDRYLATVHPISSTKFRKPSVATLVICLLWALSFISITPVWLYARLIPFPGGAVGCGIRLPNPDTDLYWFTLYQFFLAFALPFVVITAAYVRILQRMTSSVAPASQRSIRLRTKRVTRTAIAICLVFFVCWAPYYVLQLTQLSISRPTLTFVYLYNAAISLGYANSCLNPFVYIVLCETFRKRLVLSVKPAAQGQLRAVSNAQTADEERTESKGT
T1 sequence (P41143 whole entry): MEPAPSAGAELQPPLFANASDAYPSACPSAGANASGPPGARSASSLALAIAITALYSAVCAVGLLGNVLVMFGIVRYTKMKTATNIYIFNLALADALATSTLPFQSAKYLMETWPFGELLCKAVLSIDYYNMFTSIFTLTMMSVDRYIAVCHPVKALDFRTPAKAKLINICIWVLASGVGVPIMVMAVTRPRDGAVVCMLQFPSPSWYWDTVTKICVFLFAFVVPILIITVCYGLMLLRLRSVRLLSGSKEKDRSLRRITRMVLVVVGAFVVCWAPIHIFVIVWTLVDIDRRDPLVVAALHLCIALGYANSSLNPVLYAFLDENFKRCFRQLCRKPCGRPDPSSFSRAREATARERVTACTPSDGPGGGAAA
T8 sequence (P25103 whole entry): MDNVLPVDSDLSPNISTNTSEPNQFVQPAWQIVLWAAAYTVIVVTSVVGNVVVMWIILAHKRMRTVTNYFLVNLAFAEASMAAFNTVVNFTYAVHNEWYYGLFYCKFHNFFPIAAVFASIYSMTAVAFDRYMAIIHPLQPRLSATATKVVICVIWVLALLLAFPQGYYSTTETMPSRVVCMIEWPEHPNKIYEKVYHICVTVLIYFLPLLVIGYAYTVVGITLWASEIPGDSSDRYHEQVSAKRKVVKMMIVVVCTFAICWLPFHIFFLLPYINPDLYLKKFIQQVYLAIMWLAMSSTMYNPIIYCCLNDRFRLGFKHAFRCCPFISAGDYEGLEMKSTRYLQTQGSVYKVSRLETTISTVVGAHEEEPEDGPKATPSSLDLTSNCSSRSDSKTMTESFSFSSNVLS
T4 sequence (P32245 whole entry): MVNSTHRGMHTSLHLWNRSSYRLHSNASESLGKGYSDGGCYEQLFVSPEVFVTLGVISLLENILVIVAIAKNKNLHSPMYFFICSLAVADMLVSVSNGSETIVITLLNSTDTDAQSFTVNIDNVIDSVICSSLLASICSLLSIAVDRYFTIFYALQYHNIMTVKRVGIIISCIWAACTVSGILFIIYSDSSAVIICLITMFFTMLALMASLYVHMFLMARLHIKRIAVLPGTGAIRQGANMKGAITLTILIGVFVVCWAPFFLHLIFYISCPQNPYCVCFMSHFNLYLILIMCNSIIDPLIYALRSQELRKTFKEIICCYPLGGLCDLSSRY
T2 sequence (P41145 whole entry): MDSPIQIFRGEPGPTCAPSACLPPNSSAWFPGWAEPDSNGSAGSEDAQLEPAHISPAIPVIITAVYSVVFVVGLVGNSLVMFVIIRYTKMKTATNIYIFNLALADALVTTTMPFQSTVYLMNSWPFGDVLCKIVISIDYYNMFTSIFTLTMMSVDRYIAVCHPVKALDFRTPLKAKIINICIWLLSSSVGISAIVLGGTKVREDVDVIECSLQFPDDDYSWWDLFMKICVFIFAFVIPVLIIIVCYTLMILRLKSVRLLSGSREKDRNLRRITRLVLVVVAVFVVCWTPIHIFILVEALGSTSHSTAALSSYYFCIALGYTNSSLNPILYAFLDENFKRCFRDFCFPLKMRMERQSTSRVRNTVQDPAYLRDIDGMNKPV
T3 sequence (P41968 whole entry): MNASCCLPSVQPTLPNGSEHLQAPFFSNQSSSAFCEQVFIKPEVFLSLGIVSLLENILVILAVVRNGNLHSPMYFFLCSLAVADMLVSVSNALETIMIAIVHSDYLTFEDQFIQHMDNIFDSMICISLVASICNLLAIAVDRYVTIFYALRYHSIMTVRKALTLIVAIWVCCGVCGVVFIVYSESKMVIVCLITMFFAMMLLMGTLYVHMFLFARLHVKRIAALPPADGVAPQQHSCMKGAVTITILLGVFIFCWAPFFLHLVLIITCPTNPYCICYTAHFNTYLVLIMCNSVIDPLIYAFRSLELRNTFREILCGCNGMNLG
T5 sequence (P33032 whole entry): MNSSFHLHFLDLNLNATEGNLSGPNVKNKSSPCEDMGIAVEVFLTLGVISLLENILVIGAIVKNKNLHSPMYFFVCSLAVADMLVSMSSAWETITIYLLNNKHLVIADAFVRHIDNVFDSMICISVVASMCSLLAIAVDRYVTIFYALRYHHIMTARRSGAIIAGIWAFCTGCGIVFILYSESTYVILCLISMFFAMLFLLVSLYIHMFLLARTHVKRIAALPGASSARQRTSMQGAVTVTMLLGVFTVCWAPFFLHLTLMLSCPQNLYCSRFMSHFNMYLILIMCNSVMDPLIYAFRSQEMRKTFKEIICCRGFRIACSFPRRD

| SMILES | A1: inhibition of radioligand binding [1] | A2: inhibition of radioligand binding [2] | A3: inhibition of radioligand binding [3] | A4: inhibition of radioligand binding [4] | A5: inhibition of radioligand binding [5] | A6: inhibition of radioligand binding [6] | A7: inhibition of radioligand binding [7] | A8: inhibition of radioligand binding [8] | A9: inhibition of radioligand binding [9] | A10: inhibition of radioligand binding [10] | A11: inhibition of radioligand binding [11] | A1: inhibition of radioligand binding, human δ-opioid (DOP) [1] | A2: inhibition of radioligand binding, human κ-opioid (KOP) [2] | A4: inhibition of radioligand binding, human melanocortin (MC4) [4] | A5: inhibition of radioligand binding, human melanocortin (MC5) [5] | A6: inhibition of radioligand binding, human melanin-concentrating hormone (MCH1) ([6]; [125I]-S36057) | A7: inhibition of radioligand binding, human μ-opioid (MOP) [7] | A8: inhibition of radioligand binding, human neurokinin (NK1) [8] | A9: inhibition of radioligand binding, human neuropeptide Y (NPY-Y1) [9] | A10: inhibition of radioligand binding, human opioid (ORL1) [10] | other results |
| --- | --- | --- | --- | --- | --- | --- | --- | --- | --- | --- | --- | --- | --- | --- | --- | --- | --- | --- | --- | --- | --- |
| COCC1OC(OCc2ccc(Cl)cc2)C(NC(=O)CCCN)C(OCc2ccc(-c3ccccc3)cc2)C1O (stereo not shown) [compound 207] | − (“−” indicates less than 50% inhibition at 10 μM) | − (“−” indicates less than 50% inhibition at 10 μM) | + (“+” indicates greater than 50% inhibition at 10 μM) | − (“−” indicates less than 50% inhibition at 10 μM) | + (“+” indicates greater than 50% inhibition at 10 μM) | − (“−” indicates less than 50% inhibition at 10 μM) | − (“−” indicates less than 50% inhibition at 10 μM) | + (“+” indicates greater than 50% inhibition at 10 μM) | − (“−” indicates less than 50% inhibition at 10 μM) | − (“−” indicates less than 50% inhibition at 10 μM) | − (“−” indicates less than 50% inhibition at 10 μM) |  |  |  |  |  |  |  |  |  |  |
| COCC1OC(OCCc2ccccc2)C(NC(=O)CN)C(OCc2ccc(Cl)cc2)C1O (stereo not shown) [compound 219] | − (“−” indicates less than 50% inhibition at 10 μM) | − (“−” indicates less than 50% inhibition at 10 μM) | − (“−” indicates less than 50% inhibition at 10 μM) | − (“−” indicates less than 50% inhibition at 10 μM) | + (“+” indicates greater than 50% inhibition at 10 μM) | − (“−” indicates less than 50% inhibition at 10 μM) | − (“−” indicates less than 50% inhibition at 10 μM) | + (“+” indicates greater than 50% inhibition at 10 μM) | − (“−” indicates less than 50% inhibition at 10 μM) | − (“−” indicates less than 50% inhibition at 10 μM) | − (“−” indicates less than 50% inhibition at 10 μM) |  |  |  |  |  |  |  |  |  |  |
| CSC1OC(COCc2cccc(N)c2)C(O)C(OCc2ccccc2)C1NC(=O)c1c[nH]c2ccccc12 (stereo not shown) [compound 331] |  |  |  |  |  |  |  |  |  |  |  | − (“−” indicates less than 50% inhibition at 10 μM) | − (“−” indicates less than 50% inhibition at 10 μM) | − (“−” indicates less than 50% inhibition at 10 μM) | − (“−” indicates less than 50% inhibition at 10 μM) | − (“−” indicates less than 50% inhibition at 10 μM) | − (“−” indicates less than 50% inhibition at 10 μM) | + (“+” indicates greater than 50% inhibition at 10 μM) | − (“−” indicates less than 50% inhibition at 10 μM) | − (“−” indicates less than 50% inhibition at 10 μM) | A3: inhibition of radioligand binding, human melanocortin (MC3) [3]: − (“−” indicates less than 50% inhibition at 10 μM); A11: inhibition of radioligand binding, mouse urotensin (mUR2) [11]: − (“−” indicates less than 50% inhibition at 10 μM) |
| COCC1OC(OCc2ccccc2)C(NC(=O)CNC(=N)N)C(OCc2ccccc2)C1O (stereo not shown) [compound 171] |  |  |  |  |  |  |  |  |  |  |  |  |  |  |  |  |  |  |  |  | A1 radioligand binding, percentage inhibition [1]: − (“−” indicates less than 50% inhibition at 10 μM); A2 radioligand binding, percentage inhibition [2]: − (“−” indicates less than 50% inhibition at 10 μM); A3 radioligand binding, percentage inhibition [3]: − (“−” indicates less than 50% inhibition at 10 μM); A4 radioligand binding, percentage inhibition [4]: − (“−” indicates less than 50% inhibition at 10 μM); A5 radioligand binding, percentage inhibition [5]: + (“+” indicates greater than 50% inhibition at 10 μM); A6 radioligand binding, percentage inhibition ([6]; [125I]-S36057): − (“−” indicates less than 50% inhibition at 10 μM); A7 radioligand binding, percentage inhibition [7]: − (“−” indicates less than 50% inhibition at 10 μM); A8 radioligand binding, percentage inhibition [8]: + (“+” indicates greater than 50% inhibition at 10 μM); A9 radioligand binding, percentage inhibition [9]: − (“−” indicates less than 50% inhibition at 10 μM); A10 radioligand binding, percentage inhibition [10]: − (“−” indicates less than 50% inhibition at 10 μM); A11 radioligand binding, percentage inhibition [11]: − (“−” indicates less than 50% inhibition at 10 μM) |
| NCCCC(=O)NC1C(OCc2ccc(Cl)cc2)OC(COCc2ccc(Cl)cc2)C(O)C1OCc1ccc(Cl)cc1 (single isomer, unassigned) [compound 493] |  |  |  |  |  |  |  |  |  |  |  | − (“−” indicates less than 50% inhibition at 10 μM) | − (“−” indicates less than 50% inhibition at 10 μM) | + (“+” indicates greater than 50% inhibition at 10 μM) | + (“+” indicates greater than 50% inhibition at 10 μM) | + (“+” indicates greater than 50% inhibition at 10 μM) | − (“−” indicates less than 50% inhibition at 10 μM) | + (“+” indicates greater than 50% inhibition at 10 μM) | − (“−” indicates less than 50% inhibition at 10 μM) | + (“+” indicates greater than 50% inhibition at 10 μM) | A3: inhibition of radioligand binding, human melanocortin (MC3) ([3]; 10 µM): − (“−” indicates less than 50% inhibition at 10 μM); A11: inhibition of radioligand binding, mouse urotensin (mUR2) [11]: − (“−” indicates less than 50% inhibition at 10 μM) |
